Assay results from patent publication US20200298233A1, “MICROFLUIDIC PAPER CHIP FOR DETECTING MICRO-ORGANISM, METHOD FOR PREPARING THE SAME AND METHOD FOR DETECTING MICRO-ORGANISM USING THE SAME” (BIOMAX CO., LTD., priority 2017, published 2020).
“And” between values parts separate entries of the source, which are not always exact repeats. Equal values may be shown once.

Columns and labels:
Vibrio vulnificus [1] = assay: Coloring reaction test of chromogenic reagents, 96 well plate; assay type: biochemical; settings: chromogenic reagent terminal concentration 10 mM, 30 minutes at 37° C.
[2] = system: 5 food risk microorganisms; assay: Bacterial lysis efficacy by optical density, overall statements; assay type: cell-based; settings: table 7
Staphylococcus aureus [3] = assay: Coloring reaction test of chromogenic reagents, 96 well plate; assay type: biochemical; settings: chromogenic reagent terminal concentration 10 mM, 30 minutes at 37° C.
Salmonella spp. [4] = assay: as above; assay type: biochemical; settings: chromogenic reagent terminal concentration 10 mM, 30 minutes at 37° C.
Listeria monocytogenes = assay: Bacterial lysis efficacy by measuring optical density (OD); assay type: cell-based; settings: initial O.D = 0.8336
Esherichia coli O157 = assay: as above; assay type: cell-based, Escherichia coli O157; settings: initial O.D = 0.8139
Salmonella spp. [5] = assay: as above; settings: initial O.D = 1.4448
Vibrio vulnificus [6] = assay: as above; settings: initial O.D = 0.6143
Staphylococcus aureus [7] = assay: as above; assay type: cell-based; settings: initial O.D = 1.1877

| Molecule | coloring reaction (Vibrio vulnificus [1]) | coloring reaction (Staphylococcus aureus [3]) | coloring reaction (Salmonella spp. [4]) | Optical density (Listeria monocytogenes; detergent 0.1%) | Optical density (Listeria monocytogenes; detergent 0.5%) | Optical density (Listeria monocytogenes; detergent 1%) | Optical density (Listeria monocytogenes; detergent 2%) | Optical density (Listeria monocytogenes; detergent 3%) | Optical density (Listeria monocytogenes; detergent 5%) | Optical density (Esherichia coli O157; detergent 0.1%) | Optical density (Esherichia coli O157; detergent 1%) | Optical density (Esherichia coli O157; detergent 2%) | Optical density (Esherichia coli O157; detergent 3%) | Optical density (Esherichia coli O157; detergent 5%) | Optical density (Salmonella spp. [5]; detergent 0.1%) | Optical density (Salmonella spp. [5]; detergent 0.5%) | Optical density (Salmonella spp. [5]; detergent 1%) | Optical density (Salmonella spp. [5]; detergent 2%) | Optical density (Salmonella spp. [5]; detergent 3%) | Optical density (Salmonella spp. [5]; detergent 5%) | other results |
| --- | --- | --- | --- | --- | --- | --- | --- | --- | --- | --- | --- | --- | --- | --- | --- | --- | --- | --- | --- | --- | --- |
| 5-Bromo-6-chloro-3-indolyl-beta-D-glucopyranoside [Magenta-beta-glucopyranoside] | unique coloring reaction | – | – | – | – | – | – | – | – | – | – | – | – | – | – | – | – | – | – | – | – |
| 5-bromo-4-chloro-3-indoxyl-alpha-D-glucopyranoside [X-alpha-glucospyranoside] | unique coloring reaction | – | – | – | – | – | – | – | – | – | – | – | – | – | – | – | – | – | – | – | – |
| CCCCCCCc1ccc(C(O)CC[N+](C)(C)CCCS(=O)(=O)[O-])cc1 (stereo not shown) [C7BzO, 3-[[3-(4-heptylphenyl)-3-hydroxypropyl]-dimethylazaniumyl]propane-1-sulfonate] | – | – | – | – | – | – | – | – | – | – | – | – | – | – | – | – | – | – | – | – | lysis efficacy on addition to 1% (v/v) SB3-14 [2]: increased the most |
| CCCCCCCC(=O)Oc1c[nH]c2cc(Cl)c(Br)cc12 [Magenta-caprylate, 5-Bromo-6-chloro-3-indoxyl caprylate] | – | showed coloring reaction | higher intensity and speed | – | – | – | – | – | – | – | – | – | – | – | – | – | – | – | – | – | – |
| CCCCCCCCCCCC[N+](C)(C)CCCS(=O)(=O)[O-] [SB3-10, 3-(Dodecyldimethylammonio)propane-1-sulfonate] | – | – | – | 0.7689 and 0.8003 and 0.7683 | 0.7694 and 0.7802 and 0.7866 | 0.7935 and 0.7994 and 0.8055 | 0.7242 and 0.7341 and 0.7357 | 0.6917 and 0.7252 and 0.7227 | 0.8414 and 0.8448 and 0.8431 | 0.5979 and 0.5907 and 0.5816 | 0.5228 and 0.5223 and 0.5253 | 0.5845 and 0.5861 and 0.5779 | 0.6355 and 0.6371 and 0.6311 | 0.8160 and 0.8061 and 0.8134 | 0.9125 and 0.9111 and 0.9138 | 0.4241 and 0.4359 | 0.4611 and 0.4597 and 0.4705 | 0.4310 and 0.4345 | 0.4184 and 0.4186 and 0.4199 | 0.9464 and 0.9488 and 0.9479 | Optical density (Esherichia coli O157; detergent 0.5%): 0.6803 and 0.6818 and 0.6832; Optical density (Vibrio vulnificus [6]; detergent 0.1%): 0.3351 and 0.3199 and 0.3176; Optical density (Vibrio vulnificus [6]; detergent 0.5%): 0.2124 and 0.2149 and 0.2105; Optical density (Vibrio vulnificus [6]; detergent 1%): 0.1822 and 0.1758 and 0.1891; Optical density (Vibrio vulnificus [6]; detergent 2%): 0.1627 and 0.1647 and 0.1624; Optical density (Vibrio vulnificus [6]; detergent 3%): 0.0869 and 0.0865 and 0.0893; Optical density (Vibrio vulnificus [6]; detergent 5%): 0.1477 and 0.1578 and 0.1677; Optical density (Staphylococcus aureus [7]; detergent 0.1%): 0.9335 and 0.9313 and 0.9293; Optical density (Staphylococcus aureus [7]; detergent 0.5%): 0.9517 and 0.9486 and 0.9454; Optical density (Staphylococcus aureus [7]; detergent 1%): 0.8872 and 0.8856 and 0.8847; Optical density (Staphylococcus aureus [7]; detergent 2%): 0.8495 and 0.8478 and 0.8480; Optical density (Staphylococcus aureus [7]; detergent 3%): 0.5582 and 0.5458 and 0.5385; Optical density (Staphylococcus aureus [7]; detergent 5%): 0.8456 and 0.8446 and 0.8442 |
| CCCCCCCCCCCCCCCC[N+](C)(C)CCCS(=O)(=O)[O-] [SB3-16, 3-(Hexadecyldimethylammonio)propane-1-sulfonate] | – | – | – | 0.7770 and 0.8027 and 0.8073 | 0.7764 and 0.7530 and 0.7657 | 0.8133 and 0.8142 and 0.8238 | 0.7546 and 0.7725 and 0.7891 | 0.7213 and 0.7797 and 0.7969 | 0.6344 and 0.6340 and 0.6042 | 0.9950 and 1.0011 and 0.9956 | 0.8049 and 0.7896 and 0.7856 | 0.8432 and 0.8338 and 0.8284 | 0.8710 and 0.8653 and 0.8610 | 0.9536 and 0.9258 and 0.9244 | 0.6487 and 0.6399 and 0.6538 | 0.7598 and 0.7515 and 0.7651 | 0.4932 and 0.4918 and 0.4892 | 0.4688 and 0.4680 and 0.4676 | 0.4487 and 0.4508 and 0.4516 | 0.4594 and 0.4580 and 0.4632 | Optical density (Esherichia coli O157; detergent 0.5%): 1.0314 and 1.0172 and 1.0085; Optical density (Vibrio vulnificus [6]; detergent 0.1%): 0.1196 and 0.1210 and 0.1170; Optical density (Vibrio vulnificus [6]; detergent 0.5%): 0.0680 and 0.0627 and 0.0656; Optical density (Vibrio vulnificus [6]; detergent 1%): 0.0553 and 0.0506 and 0.0521; Optical density (Vibrio vulnificus [6]; detergent 2%): 0.0399 and 0.0421 and 0.0383; Optical density (Vibrio vulnificus [6]; detergent 3%): 0.0395 and 0.0407 and 0.0453; Optical density (Vibrio vulnificus [6]; detergent 5%): 0.0324 and 0.0317 and 0.0323; Optical density (Staphylococcus aureus [7]; detergent 0.1%): 1.0492 and 1.0472 and 1.0449; Optical density (Staphylococcus aureus [7]; detergent 1%): 1.1763 and 1.1734 and 1.1719; Optical density (Staphylococcus aureus [7]; detergent 2%): 1.0764 and 1.0741 and 1.0744; Optical density (Staphylococcus aureus [7]; detergent 3%): 1.0675 and 1.0649 and 1.0654; Optical density (Staphylococcus aureus [7]; detergent 5%): 1.0721 and 1.0700 and 1.0711 |
| OC[C@H]1O[C@H](Oc2c[nH]c3cc(Cl)ccc23)[C@H](O)[C@@H](O)[C@@H]1O [Salmon-alpha-glucospyranoside, 6-Chloro-3-indoxyl-alpha-D-glucopyranoside] | unique coloring reaction | unique coloring reaction | unique and strong coloring reaction | – | – | – | – | – | – | – | – | – | – | – | – | – | – | – | – | – | – |
| O=P([O-])([O-])Oc1c[nH]c2ccc(Br)c(Cl)c12.[Na+].[Na+] [X-phosphate, 5-Bromo-4-chloro-3-indoxyl phosphate, disodium salt] | – | unique coloring reaction | unique and strong coloring reaction | – | – | – | – | – | – | – | – | – | – | – | – | – | – | – | – | – | – |
| Triton X-100 | – | – | – | 0.7013 and 0.7077 and 0.7059 | 0.7398 and 0.7403 and 0.7414 | 0.6622 and 0.6765 and 0.6766 | 0.7014 and 0.7164 and 0.7099 | 0.6407 and 0.6609 and 0.6608 | 0.6213 and 0.6340 and 0.6310 | 0.8888 and 0.8930 and 0.8848 | 0.9722 and 0.9715 and 0.9720 | 0.9793 and 0.9819 and 0.9767 | 0.9052 and 0.9049 and 0.9035 | 0.9238 and 0.9183 and 0.9254 | 1.0968 and 1.0927 and 1.0890 | 1.0965 and 1.0899 and 1.1089 | 0.8827 and 0.8879 and 0.8963 | 0.9457 and 0.9452 and 0.9464 | 0.8287 and 0.8303 and 0.8231 | 0.8258 and 0.8240 and 0.8249 | Optical density (Vibrio vulnificus [6]; detergent 0.1%): 0.3916 and 0.3935 and 0.3923; Optical density (Vibrio vulnificus [6]; detergent 0.5%): 0.3421 and 0.3417 and 0.3437; Optical density (Vibrio vulnificus [6]; detergent 1%): 0.2844 and 0.2794 and 0.2801; Optical density (Vibrio vulnificus [6]; detergent 2%): 0.3044 and 0.3089 and 0.3046; Optical density (Vibrio vulnificus [6]; detergent 3%): 0.2947 and 0.2950 and 0.2966; Optical density (Vibrio vulnificus [6]; detergent 5%): 0.2499 and 0.2478 and 0.2431; Optical density (Staphylococcus aureus [7]; detergent 0.1%): 1.1248 and 1.1255 and 1.1291; Optical density (Staphylococcus aureus [7]; detergent 1%): 1.2024 and 1.2028 and 1.2027; Optical density (Staphylococcus aureus [7]; detergent 2%): 1.2247 and 1.2245 and 1.2231; Optical density (Staphylococcus aureus [7]; detergent 3%): 1.1855 and 1.1810 and 1.1826; Optical density (Staphylococcus aureus [7]; detergent 5%): 1.2147 and 1.2108 and 1.2034 |
